Measurements published in patent US20130184257A1, “PIPERIDINYL-SUBSTITUTED LACTAMS AS GPR119 MODULATORS” (priority 2010, published 2013).

Test system: modified version of the GPR119 receptor (94% identity to human receptor) stably expressed in HEK-293 cells
Experiment: cAMP Production Assay (LANCE cAMP kit, TR-FRET)
Type: cell-based
Settings: for cAMP production in HEK-293 cells: HEK-293 cells expressing modified GPR119, test compounds 0.2 nM to 10 μM, one-hour incubation at ambient temperature; for Fold over baseline: increase in cAMP relative to basal levels, 1.5-fold or greater = agonist activity
Procedure: The assay utilized HEK-293 cells that stably express a modified version of the GPR119 receptor (94% identity to human receptor), under the control of a CMV promoter containing a tet-on element for tetracycline-inducible expression. GPR119 agonist-induced cyclic AMP (cAMP) production was measured in this cell line using the LANCE cAMP kit (Perkin Elmer, Waltham, Mass.). To generate a working stock of cells for the assay, cells were treated overnight with 1 μg/mL doxycycline at 37° C. in the presence of 5% CO2 to induce receptor expression. Cells were then harvested by enzymatic dissociation with 0.05% trypsin, resuspended in freezing medium (DMEM growth medium with 10% each of fetal bovine serum and DMSO), aliquoted and frozen at −80° C. On the day of the assay, frozen cells were thawed, washed 1× in PBS and resuspended in Hank's buffered salt solution (HBSS) containing 5 mM HEPES, 0.1% BSA and Alexa Fluor 647-conjugated anti-cAMP antibody (diluted 1:100). The cell suspension was then transferred to a Proxiplate Plus white 384-well assay plate (Perkin-Elmer) at 2000 cells/well. Test compounds at final concentrations ranging from 0.2 nM to 10 μM were added to the assay plate, followed by a one-hour incubation at ambient temperature (volume=10 μL/well). DMSO concentration was held constant at 0.5%. After incubation with test compounds, 10 μL of a detergent buffer containing a biotinylated cAMP/Europium-conjugated streptavidin complex (Europium-labeled cAMP tracer) were added to each well on the assay plate, followed by a 2-hour incubation at ambient temperature. During this incubation cAMP released from lysed cells competes with the Europium-labeled cAMP tracer for binding to the Alexa Fluor 647-conjugated antibody. […] Cellular cAMP levels were then determined by interpolation of raw signal data using a cAMP standard curve. Compounds were determined to have agonist activity if they stimulated a 1.5-fold or greater increase in cAMP relative to basal levels.

| Compound | cAMP production in HEK-293 cells [nmol] | Fold over baseline |
| --- | --- | --- |
| CS(=O)(=O)c1ccc(N[C@H]2CCN(C3CCN(c4noc(C5CC5)n4)CC3)C2=O)c(F)c1 [Example 45, (S)-1-(1-(5-cyclopropyl-1,2,4-oxadiazol-3-yl)piperidin-4-yl)-3-(2-fluoro-4-(methylsulfonyl)-phenylamino)-pyrrolidin-2-one] | 13.3 | 5.3 |
| CS(=O)(=O)c1ccc(N[C@H]2CCN(C3CCN(c4noc(C5(C(F)(F)F)CC5)n4)CC3)C2=O)c(F)c1 [Example 46, (S)-3-(2-fluoro-4-(methylsulfonyl)-phenylamino)-1-(1-(5-(1-(trifluoromethyl)-cyclopropyl)-1,2,4-oxadiazol-3-yl)piperidin-4-yl)pyrrolidin-2-one] | 8.2 | 2.7 |
| CCC(F)(F)c1nc(N2CCC(N3CC[C@H](Nc4ccc(S(C)(=O)=O)cc4F)C3=O)CC2)no1 [Example 47, (S)-1-(1-(5-(1,1-difluoropropyl)-1,2,4-oxadiazol-3-yl)piperidin-4-yl)-3-(2-fluoro-4-(methylsulfonyl)-phenylamino)pyrrolidin-2-one] | 17.2 | 2.5 |
| CC(F)(F)c1nc(N2CCC(N3CCC[C@H](Nc4cc(F)c(S(C)(=O)=O)cc4F)C3=O)CC2)no1 [Example 48, (S)-3-(2,5-difluoro-4-(methylsulfonyl)phenylamino)-1′-(5-(1,1-difluoroethyl)-1,2,4-oxadiazol-3-yl)-1,4′-bipiperidin-2-one] | 8.4 | 2.3 |
| CC(F)(F)c1nc(N2CCC(N3CC[C@H](Nc4ccc(S(C)(=O)=O)cc4F)C3=O)CC2)no1 [Example 49, (S)-1-(1-(5-(1,1-difluoroethyl)-1,2,4-oxadiazol-3-yl)piperidin-4-yl)-3-(2-fluoro-4-(methylsulfonyl)phenylamino)pyrrolidin-2-one] | 20.8 | 2.7 |
| CC(F)(F)c1nc(N2CCC(N3CCC[C@H](Nc4c(F)cc(S(C)(=O)=O)cc4F)C3=O)CC2)no1 [Example 50, (S)-3-(2,6-difluoro-4-(methylsulfonyl)phenylamino)-1′-(5-(1,1-difluoroethyl)-1,2,4-oxadiazol-3-yl)-1,4′-bipiperidin-2-one] | 3.9 | 1.7 |
| CS(=O)(=O)c1ccc(N[C@H]2CCN(C3CCN(c4noc(N5CCCC5)n4)CC3)C2=O)c(F)c1 [Example 51] | 16.3 | 2.9 |
| CC(F)(F)c1nc(N2CCC(N3CC[C@H](Oc4cc(F)c(S(C)(=O)=O)cc4F)C3=O)CC2)no1 [Example 52, (S)-3-(2,5-difluoro-4-(methylsulfonyl)phenoxy)-1-(1-(5-(1,1-difluoroethyl)-1,2,4-oxadiazol-3-yl)piperidin-4-yl)pyrrolidin-2-one] | 15.5 | 5.8 |
| CS(=O)(=O)c1cc(F)c(N[C@H]2CCCCN(C3CCN(c4noc(C(F)(F)F)n4)CC3)C2=O)cc1F [Example 53, (S)-3-(2,5-difluoro-4-(methylsulfonyl)phenylamino)-1-(1-(5-(trifluoromethyl)-1,2,4-oxadiazol-3-yl)piperidin-4-yl)azepan-2-one] | 11.8 | 4.7 |
| CS(=O)(=O)c1cc(F)c(O[C@H]2CCCN(C3CCN(c4noc(C(F)(F)F)n4)CC3)C2=O)cc1F [Example 54, (S)-3-(2,5-difluoro-4-(methylsulfonyl)phenoxy)-1′-(5-(trifluoromethyl)-1,2,4-oxadiazol-3-yl)-[1,4′-bipiperidin]-2-one] | 19.9 | 4.9 |
| CC(F)(F)c1nc(N2CCC(N3CCC[C@H](Oc4cc(F)c(S(C)(=O)=O)cc4F)C3=O)CC2)no1 [Example 55, (S)-3-(2,5-difluoro-4-(methylsulfonyl)phenoxy)-1′-(5-(1,1-difluoroethyl)-1,2,4-oxadiazol-3-yl)-[1,4′-bipiperidin]-2-one] | 17.3 | 3.7 |
| CS(=O)(=O)c1ccc(O[C@H]2CCN(C3CCN(c4noc(C(F)(F)F)n4)CC3)C2=O)cn1 [Example 56, (S)-3-((6-(methylsulfonyl)pyridin-3-yl)oxy)-1-(1-(5-(trifluoromethyl)-1,2,4-oxadiazol-3-yl)piperidin-4-yl)pyrrolidin-2-one] | 21.1 | 3.3 |
| CS(=O)(=O)c1ccc(N[C@H]2CCN(C3CCN(c4noc(C(F)(F)F)n4)CC3)C2=O)cn1 [Example 57, (S)-3-((6-(methylsulfonyl)pyridin-3-yl)amino)-1-(1-(5-(trifluoromethyl)-1,2,4-oxadiazol-3-yl)piperidin-4-yl)pyrrolidin-2-one] | 27.2 | 3.7 |
| CS(=O)(=O)c1ccc(N[C@H]2CCN(C3CCN(c4noc(C(F)F)n4)CC3)C2=O)cn1 [Example 58] | 15.8 | 2.6 |
| CS(=O)(=O)c1cc(F)c(N[C@H]2CCN(C3CCN(c4nc(C(F)(F)F)no4)CC3)C2=O)cc1F [Example 59, (S)-3-((2,5-difluoro-4-(methylsulfonyl)phenyl)amino)-1-(1-(3-(trifluoromethyl)-1,2,4-oxadiazol-5-yl)piperidin-4-yl)pyrrolidin-2-one] | 25.7 | 3.9 |
| CS(=O)(=O)c1cc(F)c(N[C@H]2CCN(C3CCN(c4nc(C(F)(F)F)no4)CC3)C2=O)c(F)c1 [Example 60, (S)-3-((2,6-difluoro-4-(methylsulfonyl)phenyl)amino)-1-(1-(3-(trifluoromethyl)-1,2,4-oxadiazol-5-yl)piperidin-4-yl)pyrrolidin-2-one] | 18.1 | 3.8 |
| CC(F)(F)c1noc(N2CCC(N3CCC[C@H](Nc4cc(F)c(S(C)(=O)=O)cc4F)C3=O)CC2)n1 [Example 61, (S)-3-((2,5-difluoro-4-(methylsulfonyl)phenyl)amino)-1′-(3-(1,1-difluoroethyl)-1,2,4-oxadiazol-5-yl)-[1,4′-bipiperidin]-2-one] | 13.6 | 2.2 |
| CC(F)(F)c1noc(N2CCC(N3CCC[C@H](Nc4c(F)cc(S(C)(=O)=O)cc4F)C3=O)CC2)n1 [Example 62, (S)-3-((2,6-difluoro-4-(methylsulfonyl)phenyl)amino)-1′-(3-(1,1-difluoroethyl)-1,2,4-oxadiazol-5-yl)-[1,4′-bipiperidin]-2-one] | 16.2 | 2.6 |
| CC(F)(F)c1noc(N2CCC(N3CC[C@H](Oc4cc(F)c(S(C)(=O)=O)cc4F)C3=O)CC2)n1 [Example 63, (S)-3-(2,5-difluoro-4-(methylsulfonyl)phenoxy)-1-(1-(3-(1,1-difluoroethyl)-1,2,4-oxadiazol-5-yl)piperidin-4-yl)pyrrolidin-2-one] | 21.6 | 3.6 |
| CC(F)(F)c1nc(N2CCC(N3CC[C@H](Nc4cc(F)c(S(C)(=O)=O)cc4F)C3=O)CC2)no1 [Example 64, (S)-3-((2,5-difluoro-4-(methylsulfonyl)phenyl)amino)-1-(1-(5-(1,1-difluoroethyl)-1,2,4-oxadiazol-3-yl)piperidin-4-yl)pyrrolidin-2-one] | 15.8 | 3.3 |
| CC(F)(F)c1nc(N2CCC(N3CC[C@H](Nc4c(F)cc(S(C)(=O)=O)cc4F)C3=O)CC2)no1 [Example 65, (S)-3-((2,6-difluoro-4-(methylsulfonyl)phenyl)amino)-1-(1-(5-(1,1-difluoroethyl)-1,2,4-oxadiazol-3-yl)piperidin-4-yl)pyrrolidin-2-one] | 16.1 | 2.6 |
| CS(=O)(=O)c1cc(F)c(O[C@@H]2CCCN(C3CCN(c4noc(C(F)(F)F)n4)CC3)C2=O)cc1F [Example 67, (R)-3-(2,5-difluoro-4-(methylsulfonyl)phenoxy)-1′-(5-(trifluoromethyl)-1,2,4-oxadiazol-3-yl)-[1,4′-bipiperidin]-2-one] | 43.6 | 3.6 |
